Laboratory results as given in PMC2677626, “How β-Lactam Antibiotics Enter Bacteria: A Dialogue with the Porins” (PLoS ONE, 2009).

Molecular target: T1, OmpC (Escherichia coli, UniProt P06996)
T1 construct: OmpC porin in planar lipid bilayer
Test: single-channel ion current blockage in planar lipid bilayer
Type: binding
Details: data not shown in paper; same pattern as Omp36

T1 sequence (P06996 22-367): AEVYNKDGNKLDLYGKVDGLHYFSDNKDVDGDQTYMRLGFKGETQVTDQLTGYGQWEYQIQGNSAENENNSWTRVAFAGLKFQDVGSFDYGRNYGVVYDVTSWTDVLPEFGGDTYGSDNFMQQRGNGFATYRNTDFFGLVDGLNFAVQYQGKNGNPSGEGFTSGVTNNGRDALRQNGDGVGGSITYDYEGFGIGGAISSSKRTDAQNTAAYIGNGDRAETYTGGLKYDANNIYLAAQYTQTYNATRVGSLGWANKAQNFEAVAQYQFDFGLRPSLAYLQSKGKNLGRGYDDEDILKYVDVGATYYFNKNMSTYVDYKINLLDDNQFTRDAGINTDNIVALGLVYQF

Row | SMILES | single-channel ion current blockage in planar lipid bilayer
1 | CO/N=C(\C(=O)N[C@@H]1C(=O)N2C(C(=O)[O-])=C(C[N+]3(C)CCCC3)CS[C@H]12)c1csc(N)n1 [cefepime] | showed the same pattern of interaction with ertapenem, cefepime, ceftazidime and ampicillin (data not shown)
2 | C[C@@H](O)[C@H]1C(=O)N2C(C(=O)O)=C(S[C@@H]3CN[C@H](C(=O)Nc4cccc(C(=O)O)c4)C3)[C@H](C)[C@H]12 [ertapenem] | showed the same pattern of interaction with ertapenem, cefepime, ceftazidime and ampicillin (data not shown)
